This is an account of results in patent US5043349A, “Substituted pyrrole angiotensin II antagonists” (E. I. Du Pont de Nemours and Company, priority 1990, dated 1991).

Like-named read-outs stand apart in the source and are kept apart here.

For one data set, the system named is Renal Hypertensive Rats. Kind of data set: Antihypertensive effects in renal hypertensive rats (ligation of the left renal artery). In kind it is in vivo. The following applies: Rattus norvegicus. As for the experimental part:
This procedure increases blood pressure by increasing renin production with consequent elevation of AII levels. Compounds are administered orally and/or intravenously via a cannula in the jugular vein. Arterial blood pressure is continuously measured directly through a carotid artery cannula and recorded using a pressure transducer and a polygraph. Blood pressure levels after treatment are compared to pretreatment levels to determine the antihypertensive effects of the compounds (See Table 5).

The target in a further data set is AII receptor. The experiment in a line: Angiotensin II receptor binding (displacement of 3H-AII from rat adrenal cortical microsomes). The following applies: 50% displacement of specifically bound 3H-AII (2 nM), 1 hour, room temperature. As to the method:
The hormone angiotensin II (AII) produces numerous biological responses (e.g. vasoconstriction) through stimulation of its receptors on cell membranes. […] The reaction mixture contained rat adrenal cortical microsomes (source of AII receptor) in Tris buffer and 2 nM of ^3 H-AII with or without potential AII antagonist. This mixture was incubated for 1 hour at room temperature and the reaction was subsequently terminated by rapid filtration and rinsing through glass micro-fibre filter. Receptor-bound ^3 H-AII trapped in filter was quantitated by scintillation counting.
On the technique in general: In a radioligand displacement assay an active substance lowers the binding of a labelled ligand.

The next data set has as its system arterial pressure. The following applies: cited from earlier work.
A further data set relates to AII. The following applies: cited from earlier work.
Setting [1] is: iv, read-out: Antihypertensive Effects in Renal Hypertensive Rats, Intravenous Activity.
The mark [2] stands for this setting: po, read-out: Antihypertensive Effects in Renal Hypertensive Rats, Oral Activity.

Turning to `CCCCc1cc(COC)n(Cc2ccc(-c3ccccc3C(=O)O)cc2)n1` [Example 170, 5-Methoxymethyl-3-butyl-1-[(2'-carboxybiphenyl-4-yl)methyl]pyrazole], the figures for the minimal effective dose with Renal Hypertensive Rats (setting [1]) and in the data set with Renal Hypertensive Rats (setting [2]) were ≤ 10 mg/kg and > 100 mg/kg, respectively. Further, the IC50 (commonly the concentration at which inhibition is half-maximal) at AII receptor amounted to 7300 nM.
The matching figures for `CCCc1ccc(C(=O)O)n1Cc1ccc(-c2ccccc2C(=O)O)cc1` [Example 279, 5-n-Propyl-1-[(2'-carboxybiphenyl-4-yl)methyl]-pyrrole-2-carboxylic acid]: ≤ 10 mg/kg, ≤ 100 mg/kg and > 12000 nM.
The matching figures for `CCCc1cc(COC)n(Cc2ccc(-c3ccccc3C(=O)O)cc2)n1` [Example 174]: ≤ 10 mg/kg, > 100 mg/kg and > 1000 nM.
On the same counts, the results for `CCCc1cc(C=O)n(Cc2ccc(-c3ccccc3C(=O)O)cc2)n1` [Example 179, 5-Formyl-3-propyl-1-[(2'-carboxybiphenyl-4-yl)methyl]pyrazole] are > 30 mg/kg, > 30 mg/kg and > 3000 nM.
As for `CCCc1cc(COC)nn1Cc1ccc(-c2ccccc2C(=O)O)cc1` [Example 173, 3-Methoxymethyl-5-propyl-1-[(2'-carboxybiphenyl-4-yl)methyl]pyrazole], the minimal effective dose is ≤ 10 mg/kg in the data set on Renal Hypertensive Rats (setting [1]) and ≤ 100 mg/kg in the data set with Renal Hypertensive Rats (setting [2]). On AII receptor, the IC50 was 6700 nM.
`CCCCc1cn(Cc2ccc(-c3ccccc3-c3nn[nH]n3)cc2)nn1` [Example 3, 4-Butyl-1-[2'-(1H-tetrazol-5-yl)-biphenyl-4-yl]methyl-1,2,3-triazoles]: the minimal effective dose was ≤ 10 mg/kg in the data set with Renal Hypertensive Rats (setting [1]) and ≤ 100 mg/kg in the data set on Renal Hypertensive Rats (setting [2]). The IC50 on AII receptor stood at 6000 nM.
Take `CCCc1nnc(COC)n1Cc1ccc(-c2ccccc2C(=O)O)cc1` [Example 69, 3-Methoxymethyl-5-propyl-4-[(2'-carboxybiphenyl-4-yl)methyl]-1,2,4-triazole]: the figures for the minimal effective dose in the data set on Renal Hypertensive Rats (setting [1]) and in the data set on Renal Hypertensive Rats (setting [2]) were ≤ 10 mg/kg and > 100 mg/kg, respectively. On AII receptor, this compound registered an IC50 of 730 nM.
Turning to `CCCCc1cnnn1Cc1ccc(-c2ccccc2-c2nn[nH]n2)cc1` [Example 4], the values for the minimal effective dose in the data set on Renal Hypertensive Rats (setting [1]) and in the data set with Renal Hypertensive Rats (setting [2]) were ≤ 10 mg/kg and ≤ 100 mg/kg, respectively. This compound displayed an IC50 at AII receptor of 300 nM.
The matching figures for `CCCc1ccc(C(=O)OCC)n1Cc1ccc(-c2ccccc2C(=O)O)cc1` [Example 278, Ethyl 5-n-propyl-1-[(2'-carboxybiphenyl-4-yl)methyl]pyrrole-2-carboxylate]: > 30 mg/kg, > 30 mg/kg and > 3000 nM.
On the same counts, the results for `CCCCc1nnc(COC)n1Cc1ccc(-c2ccccc2C(=O)O)cc1` [Example 67, 3-Butyl-5-methoxymethyl-4-[(2'-carboxybiphenyl-4-yl)methyl]-1,2,4-triazole] are ≤ 10 mg/kg, > 100 mg/kg and 820 nM.
The matching figures for `CCCc1nnc(COC)n1Cc1ccc(-c2ccccc2-c2nnn[nH]2)cc1` [Example 72, 3-Methoxymethyl-5-propyl-4-[(2'-(1H-tetrazol-5-yl)biphenyl-4-yl)methyl]-1,2,4-triazole]: ≤ 10 mg/kg, ≤ 100 mg/kg and 140 nM.
Turning to `CCCc1ccc(C(=O)OCC)n1Cc1ccc(-c2ccccc2-c2nnn[nH]2)cc1` [Example 277, Ethyl 5-n-propyl-1-[2'-(1H-tetrazol-5-yl)biphenyl-4-yl-methyl]pyrrole-2-carboxylate], the minimal effective dose is ≤ 10 mg/kg in the data set on Renal Hypertensive Rats (setting [1]) and ≤ 100 mg/kg with Renal Hypertensive Rats (setting [2]). Besides, at AII receptor, the IC50 worked out at 1600 nM.
For the compound `CCCc1cc(CO)n(Cc2ccc(-c3ccccc3C(=O)O)cc2)n1` [Example 177, 5-Hydroxymethyl-3-propyl-1-[(2'-carboxybiphenyl-4-yl)methyl]pyrazole], the minimal effective dose in the data set with Renal Hypertensive Rats (setting [1]) and with Renal Hypertensive Rats (setting [2]) was > 30 mg/kg each time. The IC50 at AII receptor was > 3000 nM.
For the compound `CCCCc1nnc(CCCC)n1Cc1ccc(-c2ccccc2C(=O)O)cc1` [Example 71, 3,5-Dibutyl-4-[(2'-carboxybiphenyl-4-yl)methyl]-1,2,4-triazole], the minimal effective dose is ≤ 10 mg/kg in the data set with Renal Hypertensive Rats (setting [1]) and > 100 mg/kg in the data set on Renal Hypertensive Rats (setting [2]). The compound further returned an IC50 on AII receptor of 820 nM.
The matching figures for `C=CCCc1cc(COC)nn1Cc1ccc(-c2ccccc2C(=O)O)cc1` [Example 172, 3-Methoxymethyl-5-but-3-enyl-1-[(2'-carboxybiphenyl-4-yl)methyl]-pyrazole]: ≤ 10 mg/kg, ≤ 100 mg/kg and 720 nM.
On the same counts, the results for `CCCc1cc(C=O)nn1Cc1ccc(-c2ccccc2C(=O)O)cc1` [Example 178, 3-Formyl-5-propyl-1-[(2'-carboxybiphenyl-4-yl)methyl]pyrazole] are ≤ 10 mg/kg, ≤ 100 mg/kg and 4100 nM.
For the compound `CCCCc1cc(COC)nn1Cc1ccc(-c2ccccc2C(=O)O)cc1` [Example 171, 3-Methoxymethyl-5-butyl-1-[(2'-carboxybiphenyl-4-yl)methyl]pyrazole], the minimal effective dose in the data set with Renal Hypertensive Rats (setting [1]) is ≤ 10 mg/kg; in the data set with Renal Hypertensive Rats (setting [2]), ≤ 100 mg/kg. Moreover, the IC50 on AII receptor turned out to be 290 nM.
The matching figures for `CCCc1cc(CO)nn1Cc1ccc(-c2ccccc2C(=O)O)cc1` [Example 176, 3-Hydroxymethyl-5-propyl-1-[(2'-carboxybiphenyl-4-yl)methyl]pyrazole]: > 30 mg/kg, > 30 mg/kg and 2300 nM.
With `CCc1nnc(COC)n1Cc1ccc(-c2ccccc2C(=O)O)cc1` [Example 70, 3-Ethyl-5-methoxymethyl-4-[(2'-carboxybiphenyl-4-yl)methyl]-1,2,4-triazole], the minimal effective dose with Renal Hypertensive Rats (setting [1]) is ≤ 10 mg/kg; with Renal Hypertensive Rats (setting [2]), > 100 mg/kg. At AII receptor, this compound showed an IC50 of 5000 nM.
Take `CCCCc1cn(Cc2ccc(-c3ccccc3C(=O)O)cc2)nn1` [Example 1, 4-Butyl-1-[(2'-carboxybiphenyl-4-yl)methyl]-1,2,3-triazole]: the minimal effective dose with Renal Hypertensive Rats (setting [1]) and with Renal Hypertensive Rats (setting [2]) was > 100 mg/kg each time. This compound also yielded an IC50 on AII receptor of 3000 nM.
On to `CCCCc1cnnn1Cc1ccc(-c2ccccc2C(=O)O)cc1` [Example 2], for which the minimal effective dose in the data set on Renal Hypertensive Rats (setting [1]) is ≤ 10 mg/kg; in the data set with Renal Hypertensive Rats (setting [2]), ≤ 100 mg/kg. The compound also gave an IC50 at AII receptor of 1000 nM.
As for `CCCCc1nncn1Cc1ccc(-c2ccccc2C(=O)O)cc1` [Example 68, 3-Butyl-4-[(2'-carboxybiphenyl-4-yl)methyl]-1,2,4-triazole], the minimal effective dose with Renal Hypertensive Rats (setting [1]) is ≤ 10 mg/kg; with Renal Hypertensive Rats (setting [2]) it was > 100 mg/kg. Besides, the IC50 on AII receptor came out at 1800 nM.
For `CCCc1cc(C(=O)O)nn1Cc1ccc(-c2ccccc2C(=O)O)cc1` [Example 175, 3-Carboxy-5-propyl-1-[(2'-carboxybiphenyl-4-yl)methyl]pyrazole], in the data set on Renal Hypertensive Rats (setting [1]), the minimal effective dose was ≤ 10 mg/kg. Further, at AII receptor, the concentration for half-maximal inhibition (IC50) amounted to 9500 nM.
As to `CNCC(=O)N[C@@H](CCCN=C(N)N)C(=O)N[C@H](C(=O)N[C@@H](Cc1ccc(O)cc1)C(=O)N[C@H](C(=O)N[C@@H](Cc1cnc[nH]1)C(=O)N1CCC[C@H]1C(=O)N[C@@H](C)C(=O)O)C(C)C)C(C)C` [Saralasin, [Sar^1, Ala^8] AII], the “effect when the pressure is not sustained by AII” value with arterial pressure (due to its agonistic character) is recorded as “generally elicits pressor effects”. In addition, in the data set on arterial pressure (mammals and man), the “effect on arterial pressure when the (elevated) pressure is dependent on circulating AII” value was “lower arterial pressure in mammals and man”. Also, the “effect of oral doses” value in the data set with arterial pressure (oral) is “ineffective”. Moreover, the “duration of pharmacological effects” value with arterial pressure (parenteral administration) is listed as “relatively short-lasting”. The “antagonism of the actions of AII” value in the data set with AII (pithed rats) is recorded as “one of the most potent competitive antagonists of the actions of AII”. Moreover, the “agonistic actions of its own” value in the data set on AII (rat, in vivo) is given as “possessed agonistic actions of its own”.
